# Tests used:
# thoracic aorta of rats = experiment: Relaxing effect on thoracic aorta contracted by phenylephrine (organ bath); design: species or system rats of SD species; settings: for Relaxation percentage (Mean ± standard deviation): n = 3
# How it was run: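 Thoracic aortic rings (2 mm) from ether-anesthetized male SD rats (250-300 g) were mounted in Krebs buffer gassed with 95% O2/5% CO2 and equilibrated at 1.0 g basal tension for 90 min. After stable contraction with phenylephrine (0.5 μM), compounds were added and relaxation recorded.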
# [1] = tested on: mixed culture of nerve cells-glial cells; experiment: Protecting effect on NMDA-induced nerve cell death (LDH release); type: cell-based, ICR mouse; settings: 100 μM NMDA, LDH release after 24 hours
# How it was run: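 Embryonic day-14 ICR mouse cortical neurons seeded on cortical glia, Ara-C-treated, then exposed at day 12–15 for 20 min to 100 μM NMDA with compound at 1 or 2 μg/mL. LDH released 24 h later measured colorimetrically as a cell-death index.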
compound,measurement,setting,value
"CC(=O)N(CCCCNCCCn1c(=O)[nH]c2ccccc2c1=O)CCCn1c(=O)[nH]c2ccccc2c1=O [Compound 3, N-[3-(2,4-dioxo-1,4-dihydro-2H-quinazolin-3-yl)propyl]-N-{4-[3-(2,4-dioxo-1,4-dihydro-2H-quinazolin-3-yl)propylamino]butyl}acetamide]",Relaxation percentage (Mean ± standard deviation),"thoracic aorta of rats; 50 μg/mL, phenylephrine 0.5 μM",16.2 ± 4.4%
same,Relaxation percentage (Mean ± standard deviation),"thoracic aorta of rats; 100 μg/mL, phenylephrine 0.5 μM",44.2 ± 8.5%
same,Relaxation percentage (Mean ± standard deviation),"thoracic aorta of rats; 200 μg/mL, phenylephrine 0.5 μM",65.6 ± 7.1%
same,"Relaxation of thoracic aorta contracted by phenylephrine, dose dependence","thoracic aorta of rats; 50, 100 and 200 μg/mL",dose-dependently relaxed the thoracic aorta of rats contracted by phenylephrine
same,inhibition at 67 µg/mL,"thoracic aorta of rats; Rattus norvegicus, 67 μg/mL, phenylephrine 0.5 μM, mean n = 3, read-out: Relaxation percentage",27.4%
same,Inhibitory effect of cell death by NMDA-induced excitable neurotoxicity,[1]; 1 μg/ml compound,45.5%
same,Inhibitory effect of cell death by NMDA-induced excitable neurotoxicity,[1]; 2 μg/ml compound,54.4%
